Measurements: patent publication US4024277A, “Phosphoro-aminosulfenyl derivatives of benzofuran carbamates” (priority 1975, dated 1977)

How the values were obtained:
pea aphid [1] = experiment: Systemic insecticidal activity (soil/water), pea aphid; assay type: in vivo, Acyrthosiphon pisum (Harris); details: Acyrthosiphon pisum, 48-hour exposure, read-out: % Kill, Pea Aphid
Procedure: (§1) c. Systemic Insecticidal Acitivity (Soil/Water)
(§2) In this test, a candidate insecticide, in solution, is added to the soil of either uninfested pinto bean seedlings (Phaseolus vulgaris) or uninfested broad bean seedlings (Vicia faba var. Windsor). The plant species used depend on the insect species in the test. Usually, a 72-hour translocation period before infestation is required, followed by a 48-hour exposure period, before evaluation of the tests. The insect species used in the systemic tests are Mexican bean beetle, southern armyworm, pea aphid, and twospotted spider mite.

plum curculio [2] = experiment: Seven-day residual insecticidal activity, plum curculio; assay type: in vivo, Conotrachelus nenuphar (Herbst); details: Conotrachelus nenuphar, 48-hour exposure, read-out: % Kill, Plum Curculio
Description: (§3) b. Seven-Day Residual Insecticidal Activity
(§4) In this test, a candidate insecticide, in solution, is applied to uninfested plants or containers by dipping or spraying. A seven-day holding period is necessary before infestation. A 48-hour exposure period is observed before evaluation of the tests. The insect species used in this type of test are the same as those listed under initial activity.

twospotted spider mite [3] = experiment: Seven-day residual insecticidal activity, twospotted spider mite; assay type: in vivo, Tetranychus urticae Koch; details: Tetranychus urticae, 48-hour exposure, read-out: % Kill, Twospotted Spider Mite
Description: as §3, §4

large milkweed bug [4] = experiment: Initial insecticidal activity, milkweed bug; assay type: in vivo, Oncopeltus fasciatus (Dallas); details: Oncopeltus fasciatus, 48-hour exposure, read-out: % Kill, Milkweed Bug
Description: (§5) a. Initial Insecticidal Activity
(§6) In this test, a candidate insecticide, in solution, is applied to either infested or uninfested plants or containers by spraying or dipping. (The preferred test procedure varies with insect species. The dipping method is better than the spraying method, and vice versa, for certain species of insects. Also some species are better adapted to the test by infesting after the chemical treatment rather than before.) Once the tests have been established, a 48-hour exposure period is observed before reading the tests. Insect species included in these tests are Mexican bean beetle (Epilachna varivestis Mulsant), pea aphid [Acyrthosiphon pisum (Harris)], southern armyworm [Spodoptera eridania (Cramer)], twospotted spider mite (Tetranychus urticae Koch), large milkweed bug [Oncopeltus fasciatus (Dallas)], plum curculio [Conotrachelus nenuphar (Herbst)], confused flour beetle (Tribolium confusum Jacquelin duVal) and granary weevil [Sitophilus granarius (Linnaeus)]. Test results are set forth in Table I. A control sample, comprising the solution without the candidate insecticide, is also included.

plum curculio [5] = experiment: Initial insecticidal activity, plum curculio; assay type: in vivo, Conotrachelus nenuphar (Herbst); details: Conotrachelus nenuphar, 48-hour exposure, read-out: % Kill, Plum Curculio
Description: as §5, §6

Mexican bean beetle [6] = experiment: Systemic insecticidal activity (soil/water), Mexican bean beetle; assay type: in vivo, Epilachna varivestis Mulsant; details: Epilachna varivestis, 48-hour exposure, read-out: % Kill, Mexican Bean Beetle
Procedure: as §1, §2

Mexican bean beetle [7] = experiment: Initial insecticidal activity, Mexican bean beetle; assay type: in vivo, Epilachna varivestis Mulsant; details: Epilachna varivestis, 48-hour exposure, read-out: % Kill, Mexican Bean Beetle
Description: as §5, §6

twospotted spider mite [8] = experiment: Ovicidal activity against the twospotted spider mite; assay type: in vivo, Tetranychus urticae Koch; details: Tetranychus urticae, eggs, 7 to 10 days, read-out: % Kill (ovicidal)
Procedure: d. Ovicidal Activity Against the Twospotted Spider Mite
In this test, Pinto bean seedlings are infested with female twospotted spider mites; about 3-4 hours are allowed for egg deposition. Plants are then dipped in TEPP (tetraethylpyrophosphate-commercial emulsifiable concentrate (EC)) solution containing 936 ppm of active ingredient. TEPP kills motile forms on the leaf and promptly degrades without effecting the egg stage. Two to three hours after TEPP treatment the plants are again dipped -- this time into a candidate insecticide solution. The test plants are maintained for 7 to 10 days. Termination of exposure is determined by the time required to attain complete hatch in the untreated check.

large milkweed bug [9] = experiment: Seven-day residual insecticidal activity, milkweed bug; assay type: in vivo, Oncopeltus fasciatus (Dallas); details: Oncopeltus fasciatus, 48-hour exposure, read-out: % Kill, Milkweed Bug
Description: as §3, §4

confused flour beetle [10] = experiment: Seven-day residual insecticidal activity, confused flour beetle; assay type: in vivo, Tribolium confusum Jacquelin duVal; details: Tribolium confusum, 48-hour exposure, read-out: % Kill, Confused Flour Beetle
Description: as §3, §4

southern armyworm [11] = experiment: Initial insecticidal activity, southern armyworm; assay type: in vivo, Spodoptera eridania (Cramer); details: Spodoptera eridania, 48-hour exposure, read-out: % Kill, Southern Armyworm
Description: as §5, §6

confused flour beetle [12] = experiment: Initial insecticidal activity, confused flour beetle; assay type: in vivo, Tribolium confusum Jacquelin duVal; details: Tribolium confusum, 48-hour exposure, read-out: % Kill, Confused Flour Beetle
Description: as §5, §6

Mexican bean beetle [13] = experiment: Seven-day residual insecticidal activity, Mexican bean beetle; assay type: in vivo, Epilachna varivestis Mulsant; details: Epilachna varivestis, 48-hour exposure, read-out: % Kill, Mexican Bean Beetle
Description: as §3, §4

pea aphid [14] = experiment: Seven-day residual insecticidal activity, pea aphid; assay type: in vivo, Acyrthosiphon pisum (Harris); details: Acyrthosiphon pisum, 48-hour exposure, read-out: % Kill, Pea Aphid
Description: as §3, §4

pea aphid [15] = experiment: Initial insecticidal activity, pea aphid; assay type: in vivo, Acyrthosiphon pisum (Harris); details: Acyrthosiphon pisum, 48-hour exposure, read-out: % Kill, Pea Aphid
Description: as §5, §6

twospotted spider mite [16] = experiment: Systemic insecticidal activity (soil/water), twospotted spider mite; assay type: in vivo, Tetranychus urticae Koch; details: Tetranychus urticae, 48-hour exposure, read-out: % Kill, Twospotted Spider Mite
Procedure: as §1, §2

southern armyworm [17] = experiment: Seven-day residual insecticidal activity, southern armyworm; assay type: in vivo, Spodoptera eridania (Cramer); details: Spodoptera eridania, 48-hour exposure, read-out: % Kill, Southern Armyworm
Description: as §3, §4

southern armyworm [18] = experiment: Systemic insecticidal activity (soil/water), southern armyworm; assay type: in vivo, Spodoptera eridania (Cramer); details: Spodoptera eridania, 48-hour exposure, read-out: % Kill, Southern Armyworm
Procedure: as §1, §2

twospotted spider mite [19] = experiment: Initial insecticidal activity, twospotted spider mite; assay type: in vivo, Tetranychus urticae Koch; details: Tetranychus urticae, 48-hour exposure, read-out: % Kill, Twospotted Spider Mite
Description: as §5, §6

## CCCN(SN(C)C(=O)Oc1cccc2c1OC(C)(C)C2)P(=O)(OCC)OCC [4(c), 2,3-dihydro-2,2-dimethyl-7-benzofuranyl [(N-diethoxyphosphinyl) (N-n-propyl)aminosulfenyl][methyl]carbamate]
Pea aphid [1]; 10 ppm
  mortality at 10 ppm: 0%
Pea aphid [1]; 39 ppm
  mortality at 39 ppm: 93%
Pea aphid [1]; 156 ppm
  mortality at 156 ppm: 100%
Plum curculio [2]; 39 ppm
  mortality at 39 ppm: 0%
Plum curculio [2]; 156 ppm
  mortality at 156 ppm: 0%
Plum curculio [2]; 1250 ppm
  mortality at 1250 ppm: 19%
Twospotted spider mite [3]; 39 ppm
  mortality at 39 ppm: 0%
Twospotted spider mite [3]; 156 ppm
  mortality at 156 ppm: 0%
Twospotted spider mite [3]; 1250 ppm
  mortality at 1250 ppm: 2%
Large milkweed bug [4]; 39 ppm
  mortality at 39 ppm: 90%
Large milkweed bug [4]; 156 ppm
  mortality at 156 ppm: 100%
Large milkweed bug [4]; 1250 ppm
  mortality at 1250 ppm: 100%
Plum curculio [5]; 39 ppm
  mortality at 39 ppm: 0%
Plum curculio [5]; 156 ppm
  mortality at 156 ppm: 50%
Plum curculio [5]; 1250 ppm
  mortality at 1250 ppm: 10%
Mexican bean beetle [6]; 10 ppm
  mortality at 10 ppm: 7%
Mexican bean beetle [6]; 39 ppm
  mortality at 39 ppm: 65%
Mexican bean beetle [6]; 156 ppm
  mortality at 156 ppm: 94%
Mexican bean beetle [7]; 39 ppm
  mortality at 39 ppm: 86%
Mexican bean beetle [7]; 156 ppm
  mortality at 156 ppm: 100%
Mexican bean beetle [7]; 1250 ppm
  mortality at 1250 ppm: 95%
Twospotted spider mite [8]; 156 ppm
  mortality at 156 ppm: 0%
Twospotted spider mite [8]; 1250 ppm
  mortality at 1250 ppm: 66%
Large milkweed bug [9]; 39 ppm
  mortality at 39 ppm: 75%
Large milkweed bug [9]; 156 ppm
  mortality at 156 ppm: 95%
Large milkweed bug [9]; 1250 ppm
  mortality at 1250 ppm: 100%
Confused flour beetle [10]; 39 ppm
  mortality at 39 ppm: 0%
Confused flour beetle [10]; 156 ppm
  mortality at 156 ppm: 0%
Confused flour beetle [10]; 1250 ppm
  mortality at 1250 ppm: 0%
Southern armyworm [11]; 39 ppm
  mortality at 39 ppm: 0%
Southern armyworm [11]; 156 ppm
  mortality at 156 ppm: 29%
Southern armyworm [11]; 1250 ppm
  mortality at 1250 ppm: 100%
Confused flour beetle [12]; 39 ppm
  mortality at 39 ppm: 0%
Confused flour beetle [12]; 156 ppm
  mortality at 156 ppm: 8%
Confused flour beetle [12]; 1250 ppm
  mortality at 1250 ppm: 65%
Mexican bean beetle [13]; 39 ppm
  mortality at 39 ppm: 27%
Mexican bean beetle [13]; 156 ppm
  mortality at 156 ppm: 62%
Mexican bean beetle [13]; 1250 ppm
  mortality at 1250 ppm: 100%
Pea aphid [14]; 39 ppm
  mortality at 39 ppm: 0%
Pea aphid [14]; 156 ppm
  mortality at 156 ppm: 0%
Pea aphid [14]; 1250 ppm
  mortality at 1250 ppm: 100%
Pea aphid [15]; 39 ppm
  mortality at 39 ppm: 33%
Pea aphid [15]; 156 ppm
  mortality at 156 ppm: 100%
Pea aphid [15]; 1250 ppm
  mortality at 1250 ppm: 100%
Twospotted spider mite [16]; 10 ppm
  mortality at 10 ppm: 0%
Twospotted spider mite [16]; 39 ppm
  mortality at 39 ppm: 0%
Twospotted spider mite [16]; 156 ppm
  mortality at 156 ppm: 7%
Southern armyworm [17]; 39 ppm
  mortality at 39 ppm: 0%
Southern armyworm [17]; 156 ppm
  mortality at 156 ppm: 5%
Southern armyworm [17]; 1250 ppm
  mortality at 1250 ppm: 60%
Southern armyworm [18]; 10 ppm
  mortality at 10 ppm: 0%
Southern armyworm [18]; 39 ppm
  mortality at 39 ppm: 0%
Southern armyworm [18]; 156 ppm
  mortality at 156 ppm: 42%
Twospotted spider mite [19]; 39 ppm
  mortality at 39 ppm: 8%
Twospotted spider mite [19]; 156 ppm
  mortality at 156 ppm: 37%
Twospotted spider mite [19]; 1250 ppm
  mortality at 1250 ppm: 100%
